Experimental data published in patent publication US11980626B2, “Compositions for treatment of breast and prostate cancer” (Kembi Therapeutics Pty Ltd, priority 2017, dated 2024).

Key:
CYP17 [1] = test: Progesterone response in ER+ breast cancer patients; assay type: in vivo, human; details: vs. patients treated with abiraterone and prednisone (Abi/Pred), FIG. 20
Experimental: (§1) Subjects that fulfill the Inclusion Criteria captured in Table 4 were administered seviteronel (600 mg for male subjects, 4×150 mg tablets; 450 mg for female subjects, 3×150 mg tablets) once daily until any of the criteria in Table 2 are met. Table 5 captures the clinical screening data and screening schedule for the various screens for each of the male subjects.
as §1, with “tablets) and dexamethasone (0.5 mg)” for “tablets)”
(§2) Blood samples were collected for evaluation of steroid hormone changes as a pharmacodynamics indicator of CYP17 inhibition over time e.g., DHEA, DHEA-S, androstenedione, testosterone, cortisol, corticosterone, progesterone, pregnenolone, estradiol, estrone and ACTH).

CYP17 [2] = test: Endocrine profile (steroid hormone changes) in prostate cancer patients; assay type: in vivo, human; details: seviteronel 600 mg once daily, FIG. 7
Experimental: (§3) Males that fulfill the Inclusion Criteria captured in Table 1 were administered seviteronel (600 mg; 4×150 mg tablets) once daily until any of the criteria in Table 2 are met. Table 3 captures the clinical screening data and screening schedule for the various screens for each of the male subjects.
as §3, with “tablets) and dexamethasone (0.5 mg)” for “tablets)”
as §2

CC(C)C(O)(c1ccc2cc(OC(F)F)c(OC(F)F)cc2c1)c1c[nH]nn1 (centres unmarked) [SEVI, 1-(6,7-Bis(difluoromethoxy)naphthalen-2-yl)-2-methyl-1-(1H-1,2,3-triazol-4-yl)propan-1-ol]
increase in progesterone (CYP17 [1]): lack of clinically relevant increase | "up-stream" steroids change (CYP17 [2]): limited increase | ACTH change (CYP17 [2]): modest ACTH increase | androgen change (CYP17 [2]): modest androgen decline | cortisol change (CYP17 [2]): modest cortisol decrease
